# Source: patent US20180177147A1, “METHODS AND COMPOSITIONS FOR CULTIVATING PLANTS AND ARTIFICIAL PLANT SEEDS” (E I DU PONT DE NEMOURS AND COMPANY, priority 2014, published 2018)
# Assays:
# [1] = test system: sugarcane choplets; experiment: Survival in synthetic soil of choplets from hardened plantlets after one-day immersion in water or hormone media; format: in vivo; details: 1-day choplet treatment, 40 planted; for % surviving: day 10 in soil; for alive @ day 10: soil, artificial growth chamber
# Protocol: This example describes choplet growth outcomes in soil (survival; morphology) when the plantlets were hardened by various treatments such as nutrient deprivation or osmoticum exposure. The hardening protocols for the plantlets were gradual (multi-day) acclimation of the tissue to decreasing sucrose and/or to increasing polyethylene glycol 6000 (PEG-6000) in LPM. The hardening treatment was evaluated at two stages: the growth of treated plantlets transplanted to synthetic soil; and the survival of choplets from plantlets in a controlled environment.
# In another study, three hardening treatments were evaluated but group C hardening treatment was modified: Group C plantlets were grown in LPM for 7 days followed by transfer every two days to a medium containing higher PEG-6000 levels until the medium content had 3% sucrose and 0.2% PEG-6000. At the end of growth in tissue culture (17 days), the plantlets were transplanted to soil.
# The second test of these treated plantlets was to produce choplets and evaluate the choplets' success when transplanted to synthetic soil (Table 4). Choplets were produced from sugarcane plantlets followed by a one-day immersion in a media of water, a known plant media, or a known plant media or water containing a growth hormone, such as (6-benzylaminopurine (BAP) or gibberellins 3 (GA3)). […] Choplet preparation may comprise plantlet hardening treatment and/or media treatment after formation of a choplet.
# [2] = test system: sugarcane choplets; experiment: Soil outcomes of unembedded and embedded (F4 paper tube artificial seed) choplets incubated in various media; format: in vivo; details: 21 hr in bathing solution, MetroMix soil
# Protocol: This example describes the soil growth advantage conferred by the enclosure or encapsulation of sugarcane choplets in paper tubes with Parafilm™ covers at bottom and top. The choplets were from plantlets produced by a standard plantlet production process or from a hardening treatment (e.g. high CO2) in the temporary immersion Adaptis™ bioreactors. The choplets were incubated in various media. The media were sterile water; LPM; BAP=[…] prepared by solubilizing solid in dimethylsulfoxide to make 1 mg/mL stock then diluted stock solution in water (50 uL to 50 mL final volume) to prepare 1 mg/L working solution; GA3=giberellin 3 prepared by diluting commercial stock solution (1 mg/mL) in water to form a 1 mg/L working solution. The choplets were segregated into 4 groups of at least 50 choplets. Each group of choplets was weighed on a petri dish before addition of the 7 mL of bathing solution: water; LPM; BAP; and GA3. Each dish was covered and the edge was sealed with 3M Micropore™ tape. The petri dishes were secured to a nutator inside a walk-in growth chamber for 21 hr. For each choplet group, either ten (10) or twenty (20) F4 paper seed structures containing MetroMix™ soil and 200 uL water were assembled with triblock top and bottom lids. The structures were transplanted in a flat containing water-saturated MetroMix™ soil such that the top of the seed design is flush with the top of the soil surface. Encapsulating the choplet in an artificial seed provided improvement in soil survival for all media incubation groups except GA3.
# [3] = hardening Group B (lowered sucrose)
# [4] = choplets in F4 paper tube artificial seeds
Structure (SMILES),% surviving ([1]; hardening Group A (LPM)) [%],alive @ day 10 ([1]; hardening Group A (LPM)),"% surviving [1, 3] [%]","alive @ day 10 [1, 3]",% surviving ([1]; hardening Group C (PEG-6000)) [%],alive @ day 10 ([1]; hardening Group C (PEG-6000)),"Surviving on day 6 [2, 4]","Surviving on day 17 (% surviving) [2, 4] [%]","Surviving on day 17 (number) [2, 4]",Surviving on day 6 ([2]; unembedded choplets),Surviving on day 17 (% surviving) ([2]; unembedded choplets) [%],Surviving on day 17 (number) ([2]; unembedded choplets)
"c1ccc(CNc2ncnc3nc[nH]c23)cc1 [BAP, 6-benzylaminopurine]",18,7,28,11,25,10,20,55,11,6,7,1
"C=C1C[C@]23C[C@@]1(O)CC[C@H]2[C@@]12C=C[C@H](O)[C@@](C)(C(=O)O1)[C@H]2[C@@H]3C(=O)O [GA3, gibberellins 3]",10,4,25,10,38,15,20,30,6,9,29,4
